How the values were obtained:
[1] = test system: mouse model with obesity caused by a high fat diet; assay: Change in body weight by autonomically drinking in mouse model with obesity caused by high fat diet; format: in vivo; details: 15% (w/v) in drinking water
Experimental: Male C57BL/6J mice (Five age of the week, KRIBB, Korea) were accommodated for 1 week, and then were induced with obesity by giving a high fat diet (60% fat kcal, Research Diets) for 15 days. The weights of the animals that were induced with obesity were equally divided into 3 animals as one group. And then, the solvent-control group drank sterilized distilled water, autonomically. Hydroxypropyl-β-cyclodextrin (HPBCD) was dissolved in sterilized distilled water to be 10, 15, and 20% (W/V) concentrations for drinking autonomically. A change in body weight was daily measured to all of animals during the test; the fixed amount of feeds was provided at the day of measuring body weight, and then an amount of intake per a group (g/day) was calculated by measuring a residual amount of feeds at the next day. A change in body weight was measured during the test using α-cyclodextrin (α-CD) instead of 2-hydroxypropyl-β-cyclodextrin (HPBCD) in the same method as the above <Example 1>.

normal mouse (ICR) [2] = assay: Oral maltose tolerance test; format: in vivo; details: for Rate of Suppression (%): vs control group
Experimental: An oral maltose tolerance test system is to predict whether or not a sample has an effect on suppressing a sharp increase of blood sugar induced by intaking maltose after an oral-administration of the sample to a mouse.
(§1) A normal mouse [ICR, 6W, Coretech Inc., Korea] was accommodated for 1 week, and then approximately 18˜20 g female with 7 age of the week mouse was used. 6 mice were assigned for one experimental group and starved for 16 hours to use. HPBCD was dissolved in sterilized distilled water to be 20% (W/V) concentration, and then oral-administered in 0.2 mL per 20 g body weight of a mouse. And then, the maltose dissolved in physiological saline was oral-administered to mice in a liquid amount of 10 ml/kg to inject 2 g/kg after 15, 30, 60, and 90 minutes, respectively. The levels of blood sugars were measured just before administering maltose (0 hour), and at 15, 60, and 120 minutes after administering maltose. Blood for measuring blood sugar was collected from orbital venous of the mouse using a capillary tube. The blood sugar in the collected blood was measured using a measuring instrument, […] ALPHA (Boehringer mannheim Co.). The same amount of sterilized distilled water was administered for the control group.

Solubility in water = details: at 25° C.
high fat diet-mouse = assay: Amount of feed intake by oral administration in high fat diet-mouse; format: in vivo
Experimental: Male C57BL/6J mice (Five age of the week, KRIBB, Korea) were accommodated for 1 week. And then, the weights of the animals were equally divided into 5 animals as one group. While a high fat diet (60% fat kcal) was provided, sterilized distilled water and HPBCDs with 10, 20, and 40% (W/V) were orally administered at three times (Morning, Afternoon, Evening) a day for 5 days in 0.2 ml per 20 g body weight of a mouse at the same time. A change in body weight was measured to all of the animals during the test at one time per day; the fixed amount of feeds was provided at the day of measuring body weight, and then an average amount of intake per an animal (g/mouse/day) was calculated by measuring a residual amount of feeds at the next day.

normal mouse (ICR) [3] = assay: Oral glucose tolerance test; format: in vivo; details: for Rate of Suppression (%): vs control group
Text: An oral glucose tolerance test system is to comprehensively predict whether or not a sample has an effect on suppressing a sharp increase of blood sugar induced by intaking glucose after an oral-administration of the sample to a mouse, activities of suppressing glycolysis/glucose absorption, etc.
as §1, with “Hydroxypropyl-β-cyclodextrin (HPBCD)” for “HPBCD”, “glucose” for “maltose”, “glucose.” for “maltose.”

[4] = 20% (W/V) oral (−)15 min. before maltose 2 g/kg
[5] = 20% (W/V) oral (−)30 min. before maltose 2 g/kg
[6] = 20% (W/V) oral (−)60 min. before maltose 2 g/kg
[7] = 20% (W/V) oral (−)90 min. before maltose 2 g/kg
[8] = 20% (W/V) oral (−)15 min. before glucose 2 g/kg
[9] = 20% (W/V) oral (−)30 min. before glucose 2 g/kg
[10] = 20% (W/V) oral (−)60 min. before glucose 2 g/kg
[11] = 20% (W/V) oral (−)90 min. before glucose 2 g/kg

## 2-hydroxypropyl-β-cyclodextrin [HPBCD]
[1]; 1 Day
  Change in body weight (%): 96.1 ± 1.1 %
[1]; 3 Day
  Change in body weight (%): 90.9 ± 2.3 %
Normal mouse (ICR) [2]; [4]
  Increasing Amount of Blood Sugar (15 min.~0 hour): 189.7 mg/dL
  Level of Blood Sugar Before and After Administration of Maltose (mg/dl), 0 hour: 83.2 mg/dL
  Level of Blood Sugar Before and After Administration of Maltose (mg/dl), 15 min.: 272.8 mg/dL
  Rate of Suppression (%): 38.6%
Normal mouse (ICR) [2]; [5]
  Increasing Amount of Blood Sugar (15 min.~0 hour): 164.8 mg/dL
  Level of Blood Sugar Before and After Administration of Maltose (mg/dl), 0 hour: 87.2 mg/dL
  Level of Blood Sugar Before and After Administration of Maltose (mg/dl), 15 min.: 252.0 mg/dL
  Rate of Suppression (%): 46.7%
Normal mouse (ICR) [2]; [6]
  Increasing Amount of Blood Sugar (15 min.~0 hour): 171.3 mg/dL
  Level of Blood Sugar Before and After Administration of Maltose (mg/dl), 0 hour: 86.2 mg/dL
  Level of Blood Sugar Before and After Administration of Maltose (mg/dl), 15 min.: 257.5 mg/dL
  Rate of Suppression (%): 44.6%
Normal mouse (ICR) [2]; [7]
  Increasing Amount of Blood Sugar (15 min.~0 hour): 186.2 mg/dL
  Level of Blood Sugar Before and After Administration of Maltose (mg/dl), 0 hour: 77.7 mg/dL
  Level of Blood Sugar Before and After Administration of Maltose (mg/dl), 15 min.: 264.2 mg/dL
  Rate of Suppression (%): 39.6%
Normal mouse (ICR) [2]; oral, all pre-treatment times
  blood sugar caused by intaking maltose suppressed as compared with the control group: 38˜47%
Solubility in water
  Solubility: > 600 mg/mL
High fat diet-mouse; 10% (w/v) oral three times a day, 1 Day
  Amount of Feed Intake (g/mouse/day): 3.0 ± 0.2 g/mouse/day
High fat diet-mouse; 10% (w/v) oral three times a day, 2 Day
  Amount of Feed Intake (g/mouse/day): 2.8 ± 0.3 g/mouse/day
High fat diet-mouse; 10% (w/v) oral three times a day, 3 Day
  Amount of Feed Intake (g/mouse/day): 2.9 ± 0.5 g/mouse/day
High fat diet-mouse; 10% (w/v) oral three times a day, 4 Day
  Amount of Feed Intake (g/mouse/day): 2.7 ± 0.5 g/mouse/day
High fat diet-mouse; 10% (w/v) oral three times a day, 5 Day
  Amount of Feed Intake (g/mouse/day): 2.7 ± 0.5 g/mouse/day
High fat diet-mouse; 10, 20, 40% (W/V) oral
  amount of dietary intake: temporary effect on decreasing an amount of dietary intake
High fat diet-mouse; 20% (w/v) oral three times a day, 1 Day
  Amount of Feed Intake (g/mouse/day): 2.4 ± 0.4 g/mouse/day
High fat diet-mouse; 20% (w/v) oral three times a day, 2 Day
  Amount of Feed Intake (g/mouse/day): 2.1 ± 0.4 g/mouse/day
High fat diet-mouse; 20% (w/v) oral three times a day, 3 Day
  Amount of Feed Intake (g/mouse/day): 2.5 ± 0.4 g/mouse/day
High fat diet-mouse; 20% (w/v) oral three times a day, 4 Day
  Amount of Feed Intake (g/mouse/day): 2.6 ± 0.2 g/mouse/day
High fat diet-mouse; 20% (w/v) oral three times a day, 5 Day
  Amount of Feed Intake (g/mouse/day): 2.1 ± 0.4 g/mouse/day
High fat diet-mouse; 40% (w/v) oral three times a day, 1 Day
  Amount of Feed Intake (g/mouse/day): 1.8 ± 0.5 g/mouse/day
High fat diet-mouse; 40% (w/v) oral three times a day, 2 Day
  Amount of Feed Intake (g/mouse/day): 2.0 ± 0.5 g/mouse/day
High fat diet-mouse; 40% (w/v) oral three times a day, 3 Day
  Amount of Feed Intake (g/mouse/day): 2.7 ± 0.6 g/mouse/day
High fat diet-mouse; 40% (w/v) oral three times a day, 4 Day
  Amount of Feed Intake (g/mouse/day): 2.5 ± 0.3 g/mouse/day
High fat diet-mouse; 40% (w/v) oral three times a day, 5 Day
  Amount of Feed Intake (g/mouse/day): 2.6 ± 0.3 g/mouse/day
Normal mouse (ICR) [3]; [8]
  Increasing Amount of Blood Sugar (15 min.~0 hour): 190.0 mg/dL
  Level of Blood Sugar Before and After Administration of D-glucose (mg/dl), 0 Hour: 74.8 mg/dL
  Level of Blood Sugar Before and After Administration of D-glucose (mg/dl), 15 min.: 264.8 mg/dL
  Rate of Suppression (%): 19.7%
Normal mouse (ICR) [3]; [9]
  Increasing Amount of Blood Sugar (15 min.~0 hour): 191.0 mg/dL
  Level of Blood Sugar Before and After Administration of D-glucose (mg/dl), 0 Hour: 83.3 mg/dL
  Level of Blood Sugar Before and After Administration of D-glucose (mg/dl), 15 min.: 274.3 mg/dL
  Rate of Suppression (%): 19.3%
Normal mouse (ICR) [3]; [10]
  Increasing Amount of Blood Sugar (15 min.~0 hour): 184.5 mg/dL
  Level of Blood Sugar Before and After Administration of D-glucose (mg/dl), 0 Hour: 83.3 mg/dL
  Level of Blood Sugar Before and After Administration of D-glucose (mg/dl), 15 min.: 267.8 mg/dL
  Rate of Suppression (%): 22.0%
Normal mouse (ICR) [3]; [11]
  Increasing Amount of Blood Sugar (15 min.~0 hour): 180.7 mg/dL
  Level of Blood Sugar Before and After Administration of D-glucose (mg/dl), 0 Hour: 78.3 mg/dL
  Level of Blood Sugar Before and After Administration of D-glucose (mg/dl), 15 min.: 259.0 mg/dL
  Rate of Suppression (%): 23.7%
Normal mouse (ICR) [3]; oral, all pre-treatment times
  blood sugar caused by intaking glucose suppressed as compared with the control group: 19˜24%
